From article PMC6073568, “Efficient Lead Finding, Activity Enhancement and Preliminary Selectivity Control of Nuclear Receptor Ligands Bearing a Phenanthridinone Skeleton” (International Journal of Molecular Sciences, 2018)

Assays:
[1] = molecular target: T1, AR (Homo sapiens, UniProt P10275); test: AR reporter gene assay in HEK293; format: cell-based; conditions: reporter gene assay, HEK293; agonist dihydrotestosterone 0.3 nM; read-out: AR antagonistic activity (IC50), AR reporter gene
T1 sequence (P10275 1-920): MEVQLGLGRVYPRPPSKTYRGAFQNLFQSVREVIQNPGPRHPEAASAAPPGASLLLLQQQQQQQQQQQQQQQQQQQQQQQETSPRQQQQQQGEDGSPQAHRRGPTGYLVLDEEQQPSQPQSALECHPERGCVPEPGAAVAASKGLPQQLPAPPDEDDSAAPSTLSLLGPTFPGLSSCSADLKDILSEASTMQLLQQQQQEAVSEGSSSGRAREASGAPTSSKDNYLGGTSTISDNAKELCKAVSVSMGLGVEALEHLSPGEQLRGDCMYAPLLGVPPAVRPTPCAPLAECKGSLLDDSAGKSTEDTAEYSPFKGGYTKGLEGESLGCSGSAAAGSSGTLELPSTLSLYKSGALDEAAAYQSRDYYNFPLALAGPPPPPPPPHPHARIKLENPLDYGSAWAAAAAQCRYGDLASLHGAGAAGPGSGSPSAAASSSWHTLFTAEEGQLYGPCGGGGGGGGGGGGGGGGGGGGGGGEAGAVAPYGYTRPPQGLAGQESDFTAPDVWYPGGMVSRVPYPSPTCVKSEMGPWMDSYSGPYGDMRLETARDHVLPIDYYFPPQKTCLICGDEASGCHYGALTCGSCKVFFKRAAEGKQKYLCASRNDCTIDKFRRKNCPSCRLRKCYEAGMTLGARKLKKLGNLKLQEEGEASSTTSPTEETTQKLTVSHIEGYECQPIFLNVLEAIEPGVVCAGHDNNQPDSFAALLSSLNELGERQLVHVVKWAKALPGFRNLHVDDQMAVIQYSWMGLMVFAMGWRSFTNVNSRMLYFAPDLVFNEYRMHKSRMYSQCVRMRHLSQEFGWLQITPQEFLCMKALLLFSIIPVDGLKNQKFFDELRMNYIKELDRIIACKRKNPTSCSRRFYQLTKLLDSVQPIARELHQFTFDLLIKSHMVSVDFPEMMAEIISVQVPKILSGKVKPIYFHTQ

[2] = molecular target: T2, LXRα (Homo sapiens, UniProt Q13133); test: LXRα reporter gene assay in HEK293; format: cell-based; conditions: read-out: LXRα antagonistic activity (IC50)
T2 construct: CMX-GAL4N-hLXRα-LBD; expressed in transfected cells; host or cells: HEK293
T2 sequence (Q13133 209-447 limits assumed): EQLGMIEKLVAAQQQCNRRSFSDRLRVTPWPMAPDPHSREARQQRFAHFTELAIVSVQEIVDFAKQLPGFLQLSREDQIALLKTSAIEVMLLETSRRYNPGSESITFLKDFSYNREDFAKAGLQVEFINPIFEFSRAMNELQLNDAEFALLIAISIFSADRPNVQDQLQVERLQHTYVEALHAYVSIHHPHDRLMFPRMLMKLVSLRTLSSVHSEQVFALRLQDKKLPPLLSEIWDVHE

[3] = molecular target: T3, GR (Homo sapiens, UniProt P04150); test: GR reporter gene assay in HEK293; format: cell-based; conditions: reporter gene assay, HEK293; agonist dexamethasone 1 nM; read-out: GR antagonistic activity (IC50)
T3 construct: expressed in transfected cells; host or cells: HEK293
T3 sequence (P04150 1-777): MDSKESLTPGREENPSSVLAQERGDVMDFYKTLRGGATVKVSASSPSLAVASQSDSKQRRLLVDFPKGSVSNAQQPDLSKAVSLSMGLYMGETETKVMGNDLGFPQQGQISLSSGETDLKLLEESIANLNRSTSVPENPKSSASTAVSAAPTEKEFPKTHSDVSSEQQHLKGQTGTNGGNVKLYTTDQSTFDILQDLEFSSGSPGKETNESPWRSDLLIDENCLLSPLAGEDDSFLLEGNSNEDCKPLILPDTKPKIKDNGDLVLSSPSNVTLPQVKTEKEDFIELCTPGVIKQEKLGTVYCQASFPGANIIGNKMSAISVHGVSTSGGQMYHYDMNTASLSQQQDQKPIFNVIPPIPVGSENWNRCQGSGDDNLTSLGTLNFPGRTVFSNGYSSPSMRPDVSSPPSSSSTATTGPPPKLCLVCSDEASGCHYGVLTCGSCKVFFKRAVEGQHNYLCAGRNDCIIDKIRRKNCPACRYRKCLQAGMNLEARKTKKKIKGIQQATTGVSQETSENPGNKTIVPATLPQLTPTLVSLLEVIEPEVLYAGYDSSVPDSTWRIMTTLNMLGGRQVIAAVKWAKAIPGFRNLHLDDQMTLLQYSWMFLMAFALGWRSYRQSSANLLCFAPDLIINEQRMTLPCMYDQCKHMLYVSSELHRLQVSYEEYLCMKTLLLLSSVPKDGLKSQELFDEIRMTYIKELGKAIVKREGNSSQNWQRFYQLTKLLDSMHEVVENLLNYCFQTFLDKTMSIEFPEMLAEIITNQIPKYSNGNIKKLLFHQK

[4] = molecular target: T4, RORα (Homo sapiens, UniProt P35398); conditions: reporter gene assay, HEK293; read-out: RORα inverse agonistic activity (IC50); cited from earlier work
T4 construct: expressed in transfected cells; host or cells: HEK293
T4 sequence (P35398 1-523): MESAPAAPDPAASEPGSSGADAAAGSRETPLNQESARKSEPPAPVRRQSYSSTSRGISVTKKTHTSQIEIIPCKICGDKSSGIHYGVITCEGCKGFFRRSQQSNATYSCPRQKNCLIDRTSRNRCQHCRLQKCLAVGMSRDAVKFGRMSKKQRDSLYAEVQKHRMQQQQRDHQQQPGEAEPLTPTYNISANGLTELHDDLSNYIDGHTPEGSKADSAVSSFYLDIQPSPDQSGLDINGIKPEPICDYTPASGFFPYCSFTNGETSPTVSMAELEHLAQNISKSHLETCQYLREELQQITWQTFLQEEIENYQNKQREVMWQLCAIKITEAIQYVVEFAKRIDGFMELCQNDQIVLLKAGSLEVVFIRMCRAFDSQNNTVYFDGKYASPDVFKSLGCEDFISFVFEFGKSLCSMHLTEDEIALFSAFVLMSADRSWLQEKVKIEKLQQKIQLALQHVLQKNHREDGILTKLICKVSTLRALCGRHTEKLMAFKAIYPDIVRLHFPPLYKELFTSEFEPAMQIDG

**Q.** For `CCCc1cc(C(O)(C(F)(F)F)C(F)(F)F)cc2c1[nH]c(=O)c1ccccc12` [Compound 42], which IC50 [1] is on record?
**A.** 5.4 µM

**Q.** And the IC50 [2]?
**A.** > 20 µM

**Q.** And the IC50 [3]?
**A.** 16 µM

**Q.** And the IC50 [4]?
**A.** > 20 µM
